Assay results: patent US11931374B2, “Adenosine receptor modulators for the treatment of circadian rhythm disorders” (OXFORD UNIVERSITY INNOVATION LIMITED, priority 2016, dated 2024)

Tests used:
[1] = tested on: STAR-PROM plasmid library; assay: STAR-PROM transcription factor screening in U2OS cells; assay type: cell-based; conditions: siFos
Experimental: This was conducted as previously reported in Gerber et al., Cell. […] Briefly, U2OS cells were cultured in 6-well plates and transfected with 1 ug of the STAR-PROM plasmid library (library structure as in above reference). RNA was extracted at set time points and sequenced for the barcoded luciferase constructs and analysed with Galaxy (https://use.galaxy.org).

[2] = tested on: Per2::Luc U2OS cells; assay: Per2::Luc cell based circadian assay; conditions: for circadian period length: Per2::Luc U2OS cells, dose response
Experimental: U2OS cells stably transfected with a Per2::Luc reporter were cultured in DMEM supplemented with 10% FBS. For siRNA- and drug-based experiments, cells were seeded at 5,000 per well into white 384 well plates and transfected with 20 nM siRNA the next day. 2 days later, the cells were synchronized with 100 nM dexamethasone and the medium was replaced with phenol-red free DMEM supplemented with B-27 and 100 µM luciferin potassium salt, requisite drugs formulated in DMSO as a 1000× stock was added, and then sealed. Per2::Luc rhythms were recorded from a BMG Labtech Fluostar Omega plate reader maintained at 36° C. and readings taken from each well every hour. Data were then analysed using either Multicycle or Brass rhythm analysis software.
Period2::Luciferase (Per2::Luc) stable U2OS transfects were cultured, as described above. A Greiner Bio-One 384 Well Plate (Polystyrene, F-bottom), was then seeded at 6000 cells per 50 μl well. Following a 24 hour period, the cells were treated with 0.1% dexamethasone, a glucocorticoid hormone analogue known to reset intracellular circadian rhythms, for 1 hour. Subsequently, the dexamethasone-containing medium was removed, the cells were washed with PBS and luciferin and test drug containing medium was added. The cells were then assayed for luminescence over a period of 96 hours in the BMG FLUOstar OPTIMA Microplate Reader to observe the periodicity and amplitude of the luminescence values.

[3] = tested on: Per1/2; assay: Sleep deprivation, Per1/2 expression within the SCN; assay type: in vivo; conditions: sleep deprivation decreases Per1/2 expression
[4] = tested on: Per2; assay: Per2 mRNA levels in U2OS cells by qPCR; assay type: cell-based; conditions: U2OS cells, qPCR, concentration not given
Experimental: (§1) Total RNA was extracted using the microRNeasy column method (Qiagen, Hilden, Germany). Quality and quantity of RNA were measured using an Agilent Bioanalyzer and a Nanodrop1000 (Thermo Fisher Scientific, Waltham, MA USA), respectively.
(§2) RNA samples were prepared as described for microarray hybridisation. cDNA was synthesized with a qScript cDNA synthesis kit (Quanta Biosciences, Gaithersburg, MD), and quantitative PCR (qPCR) was conducted with Sybr green I and an SDS7700 thermal cycler (Applied Biosystems, Foster City, CA). Relative quantification of transcript levels was done as described previously (Peirson et al., Nucleic Acids Res. 2003 Jul. 15; 31(14):e73.). The geometric mean of a minimum of three housekeeping genes was used for normalization (Gapdh, ActB, GusB and Rps9 for example).
(§3) Cells from the U2OS (HTB-96) line were obtained, tested and identified. The cells were cultured in T-75 flasks, in Dulbecco's modified Eagle medium (DMEM) supplemented with 10% foetal bovine serum (FBS) and 1% penicillin-streptomycin (P/S) at 37° C. in a humidified atmosphere at 5% CO2. The cells were subcultured every 2 to 4 days in a 1:2 to 1:6 ratio, in accordance with the ATCC recommendations. The cells were counted using a haemocytometer, and their viability in a culture was maintained at above 95%, measured with a Presto Blue exclusion assay according to the manufacturer's specifications. Cells were transfected with siRNAs (typically at 50 nM concentrations, sequences as previously listed), the CRE::Luc (pGL4.29[luc2P/CRE/Hygro] Vector, encoding Luc2P […] under the control of a strong cAMP response element (CRE) promoter containing 3 CRE elements within its sequence; Promega) reporter vector or cAMP-GLOSensor plasmid (Promega) as per manufacturer's instructions using either Lipofectamine RNAimax (Invitrogen) or Lipofectamine3000 (Invitrogen).

[5] = tested on: C57Bl/6 mice; assay: Phase shifting of circadian activity by drug (running wheel); assay type: in vivo; conditions: administered at CT22, absence of a light pulse
Experimental: Animals were housed under a reversed 12:12 LD cycle (400 lux from white LED lamps) with food and water ad libitum. For phase-shifting studies, C57Bl/6 mice were maintained on running wheels in light tight chambers on a 12:12 LD cycle (400 lux from white LED lamps) and injected with drug at the indicated time points. The drugs were formulated in a vehicle consisting of 5% Koliphor-HS15 (Sigma-Aldrich, UK) 5% Cyclodextran (Sigma-Aldrich, UK) in 0.9% saline. This vehicle was warmed to 37° C. and the indicated drugs kept at a 100× stock in DMSO and mixed at the appropriate concentration to be administered at approximately 300 ul intraperitoneal injection (n=6 to 10). Where the time point of injection was in the dark, the procedure was conducted under dim red light. Where measuring phase-shifting, the mice were then placed in DD and allowed to free run for 14 days in DD, running wheel activity data was collected and analysed on Clocklab (Actimetrics, Wilmette, IL). For jet-lag studies, mice were maintained on running wheels in light tight chambers on a 12:12 LD cycle (400 lux from white LED lamps) and injected with drugs as above at ZT6 and the LD cycle was shifted 6 hours in advance. The onset of activity on each day was used to measure phase relative to the LD cycle.
Phase Shifting: C57Bl/6 male mice (80 days or older) were maintained on running wheels in light tight chambers on a 12:12 LD cycle (100 lux from white LED lamps) on stable entrainment, were released in complete darkness. At set times as indicated in the experiments, the animals received an intraperitoneal injection (300 ul) of drug constituted in sterile saline with 5% Cyclodextrin (Sigma-Aldrich) and 5% Koliphor (Sigma-Aldrich) and then allowed to free run in DD, running wheel activity data were collected and analysed on Clocklab (Actimetrics, Wilmette, IL).

[6] = tested on: Per1; assay: Per1 mRNA levels in U2OS cells by qPCR; assay type: cell-based; conditions: U2OS cells, qPCR, concentration not given
Experimental: as §1, §2, §3

[7] = tested on: CRE::Luc reporter; assay: CRE-Luc luciferase assay in U2OS cells; assay type: cell-based
Experimental: At 60-80% confluence and >90% viability, the U2OS cells in the T-75 flask were washed twice with 6 ml phosphate-buffered saline (PBS) and subsequently treated with 4 ml of TrypLE™ Express trypsin replacement solution for 10 minutes. A Greiner Bio-One 96 Well Plate (white, TC treated), was then seeded at 8000 cells per well. Following 24 hours, the cells were transfected at 50-70% confluency with CRE-luc Vector generated in-house with Viafect transfection reagent at 1:4 ratio (100 ng DNA/well) following manufacturers recommendations.
24 hours after transfection, the medium in the 96 well plate was changed to a serum-free medium with 1 mM luciferin. The cells were then incubated in serum starvation conditions for 6-8 hours, this was optimised to yield the greatest signal strength and lowest noise when assayed with forskolin control. Following the incubation period, the CRE-Luc U2OS cells were treated with the appropriate drug and their luminescence values were measured after 6 hours in the BMG FLUOstar OPTIMA Microplate Reader. […] Unless stated otherwise, forskolin was used as a positive control, and 1% DMSO was used as a negative control.

[8] = tested on: C57Bl/6 mice; assay: Phase shifting of circadian activity in response to a light pulse with drug; assay type: in vivo; conditions: 1 mg/kg intraperitoneal before 30 min 400 lux light pulse at CT22
Experimental: Animals were maintained in a 12 h light (white) 12 h dark (grey) cycle and vehicle was administered just before a 30 min 400 lux light pulse (white bar) at time CT 22 (or 10 hours after lights off). All light cues were then removed to allow the animals free running clock to express. A gap in the lines on the day after the light pulse was administered indicates a phase shift.
Animals were maintained in a 12 h light (white) 12 h dark (grey) cycle and IB-MECA (1 mg/kg) was administered just before a 30 min 400 lux light pulse (white bar) at time CT 22 (or 10 hours after lights off).
Animals were housed under a reversed 12:12 LD cycle (400 lux from white LED lamps) with food and water ad libitum. For phase-shifting studies, C57Bl/6 mice were maintained on running wheels in light tight chambers on a 12:12 LD cycle (400 lux from white LED lamps) and injected with drug at the indicated time points. The drugs were formulated in a vehicle consisting of 5% Koliphor-HS15 (Sigma-Aldrich, UK) 5% Cyclodextran (Sigma-Aldrich, UK) in 0.9% saline. […] Where measuring phase-shifting, the mice were then placed in DD and allowed to free run for 14 days in DD, running wheel activity data was collected and analysed on Clocklab (Actimetrics, Wilmette, IL). […]

[9] = tested on: intracellular levels of cAMP; assay: cAMP GloSensor assay in U2OS cells; assay type: cell-based
Experimental: The GloSensor™ cAMP Assay (Promega) was used for detecting changes in the intracellular levels of cAMP. Initially, a Greiner Bio-One 96 Well Plate (white, TC treated) was seeded at 8000 cells per 100 μl well, as described above. After 24 hours, the cells were transfected with the pGloSensor™ cAMP Plasmid using the Viafect transfection reagent as above. Between 24 and 48 hours later, allowing for the accumulation of the biosensor, the medium in the 96 well plate was changed to C02-Independent Medium supplemented with GlutaMAX™ (Life Technologies), 10% fetal bovine serum and 2% GloSensor™ cAMP Reagent. The plate was then stood for 2 hours at room temperature to equilibrate. Following the incubation period, the cells were treated with relevant drugs and their luminescence values were measured after 20 minutes in the BMG FLUOstar OPTIMA Microplate Reader, with forskolin as a positive control, and DMSO as a negative control.

[10] = tested on: Per1/2; assay: Sleep deprivation, Per1/2 within the cortex; assay type: in vivo; conditions: data not shown

With Nc1nc2ccc(Cl)cc2c2nc(-c3ccco3)nn12 [CGS15943, 9-chloro-2-(furan-2-yl)-[1,2,4]triazolo[1,5-c]quinazolin-5-amine] the “response of clone3 after siRNA-mediated silencing of Fos” value [1] was “significantly reduced” and the “period lengthening effect after knockdown of adenosine receptors” value ([2]; A1, A2A, A2B adenosine receptors in U2OS cells knocked down using siRNA) was “lost”.
For CCNC(=O)[C@H]1O[C@@H](n2cnc3c(N)nc(NCCc4ccc(CCC(=O)O)cc4)nc32)[C@H](O)[C@@H]1O.Cl [CGS21680, 3-[4-[2-[[6-amino-9-[(2R,3R,4S,5S)-5-(ethylcarbamoyl)-3,4-dihydroxy-oxolan-2-yl]purin-2-yl]amino]ethyl]phenyl]propanoic acid], the “Per1/2 expression within the SCN” value [3] was “increased Per1/2 expression”.
In the case of CNC(=O)[C@H]1O[C@@H](n2cnc3c(NCc4cccc(I)c4)ncnc32)[C@H](O)[C@@H]1O [IB-MECA, 1-Deoxy-1-[6-[((3-Iodophenyl)methyl)amino]-9H-purin-9-yl]-N-methyl-β-D-ribofuranuronamide], the “Per2 mRNA levels / expression” value [4] is reported as “elevated”, the “phase shift of circadian activity” value [5] is reported as “elicited a phase delay” and the “Per1 mRNA levels / expression” value [6] is reported as “elevated”. The “CREB-driven transcription (CRE::Luc reporter)” value [7] was “activation”, the “phase advance induced by light pulse” value [8] was “phase advance was lost” and the circadian period length [2] was “dose-dependent period length increases”. The “amplitude of the cellular clock” value ([2]; Per2::Luciferase construct, U2OS cells) was “increases in period and amplitude” and the cAMP levels [9] was “concurrent increase”.
With CCn1c(=O)c2c(nc(/C=C/c3ccc(OC)c(OC)c3)n2C)n(CC)c1=O [Istradefylline, 8-[(E)-2-(3,4-dimethoxyphenyl)vinyl]-1,3-diethyl-7-methyl-3,7-dihydro-1H-purine-2,6-dione] the circadian period length [2] was “increased circadian period length in a dose dependent manner”.
O=C(Cc1ccccc1)Nc1nc2ccc(Cl)cc2c2nc(-c3ccco3)nn12 [MRS1220, 9-Chloro-2-(2-furanyl)-5-((phenylacetyl)amino)-[1,2,4]triazolo[1,5-c]quinazoline] was tested, and the circadian period length [2] was “increased circadian period length in a dose dependent manner”.
Nc1nc(NCCc2ccc(O)cc2)nc2nc(-c3ccco3)nn12 [ZM241385, 4-(2-(7-amino-2-(furan-2-yl)-[1,2,4]triazolo[1,5-a][1,3,5]triazin-5-ylamino)ethyl)phenol] was tested, and the circadian period length [2] was “increased circadian period length in a dose dependent manner”.
In the case of CC#C[C@]1(O)CC[C@H]2[C@@H]3CCC4=CC(=O)CCC4=C3[C@@H](c3ccc(N(C)C)cc3)C[C@@]21C [mifepristone], the “sleep deprivation-induced increase of Per1/2 within the cortex” value [10] is reported as “blunted this response”.
